PubChem BioAssay AID2060624 (Molecular Pharmacology Branch, DTP, NCI, 2025)

System: 217524-143-R1-J4-PDC spheroids with HUVEC/MSC, viability
Test: Anticancer human tumor 217524-143-R1-J4-PDC patient-derived pancreatic carcinoma cell line growth inhibition [CLK]
Details: for IC50: curve of first compound; for viability, T/C: stronger effect = lower value
Procedure, shortened: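 Multi-cell-type spheroids combined patient-derived tumor cells with HUVEC endothelial cells and human mesenchymal stem cells. Paired agents were dosed in half-log steps down from about clinical Cmax, or from 10 microM where Cmax was unknown.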

[1] = second compound 0.0316 µM, first compound 0.0316 µM
[2] = second compound 0.0316 µM, first compound 0.1 µM
[3] = second compound 0.1 µM, first compound 0.0316 µM
[4] = second compound 0.1 µM, first compound 0.1 µM
[5] = second compound 0.316 µM, first compound 0.0316 µM
[6] = second compound 0.316 µM, first compound 0.1 µM
[7] = second compound 1 µM, first compound 0.0316 µM
[8] = second compound 1 µM, first compound 0.1 µM
[9] = second compound 3.16 µM, first compound 0.0316 µM
[10] = second compound 3.16 µM, first compound 0.1 µM
[11] = second compound 10 µM, first compound 0.0316 µM
[12] = second compound 10 µM, first compound 0.1 µM
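Also: spheroids exposed to agents for seven days before reading.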
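For viability, T/C in this document: 100% = DMSO vehicle control viability.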

## CC(C)CC(NC(=O)C(Cc1ccccc1)NC(=O)c1cnccn1)B(O)O (stereo unspecified) + CNC(=O)c1ccc(Nc2nc(OC3CCCC3)c3c(-c4ccc5nc(C)oc5c4)c[nH]c3n2)c(OC)c1
Second compound 0.0316 µM
  IC50: 5.06 nM
Second compound 0.1 µM
  IC50: 3.04 nM
Second compound 0.316 µM
  IC50: < 0.949 nM
Second compound 1 µM
  IC50: < 0.949 nM
Second compound 3.16 µM
  IC50: < 0.949 nM
Second compound 10 µM
  IC50: < 0.949 nM
Second compound 0.0316 µM, first compound 0.000949 µM
  viability, T/C: 90.4%
Second compound 0.0316 µM, first compound 0.003 µM
  viability, T/C: 71.8%
Second compound 0.0316 µM, first compound 0.00949 µM
  viability, T/C: 23.7%
Second compound 0.0316 µM, first compound 0.03 µM
  viability, T/C: 6.76%
Second compound 0.0316 µM, first compound 0.0949 µM
  viability, T/C: 3.97%
Second compound 0.0316 µM, first compound 0.3 µM
  viability, T/C: 1.1%
Second compound 0.1 µM, first compound 0.000949 µM
  viability, T/C: 45.6%
Second compound 0.1 µM, first compound 0.003 µM
  viability, T/C: 55.1%
Second compound 0.1 µM, first compound 0.00949 µM
  viability, T/C: 17.5%
Second compound 0.1 µM, first compound 0.03 µM
  viability, T/C: 5.06%
Second compound 0.1 µM, first compound 0.0949 µM
  viability, T/C: 2.97%
Second compound 0.1 µM, first compound 0.3 µM
  viability, T/C: 1.89%
Second compound 0.316 µM, first compound 0.000949 µM
  viability, T/C: 40.3%
Second compound 0.316 µM, first compound 0.003 µM
  viability, T/C: 47.1%
Second compound 0.316 µM, first compound 0.00949 µM
  viability, T/C: 18.7%
Second compound 0.316 µM, first compound 0.03 µM
  viability, T/C: 4.6%
Second compound 0.316 µM, first compound 0.0949 µM
  viability, T/C: 3.43%
Second compound 0.316 µM, first compound 0.3 µM
  viability, T/C: 2.04%
Second compound 1 µM, first compound 0.000949 µM
  viability, T/C: 29.1%
Second compound 1 µM, first compound 0.003 µM
  viability, T/C: 38.5%
Second compound 1 µM, first compound 0.00949 µM
  viability, T/C: 7.88%
Second compound 1 µM, first compound 0.03 µM
  viability, T/C: 2.84%
Second compound 1 µM, first compound 0.0949 µM
  viability, T/C: 2.06%
Second compound 1 µM, first compound 0.3 µM
  viability, T/C: 1.44%
Second compound 3.16 µM, first compound 0.000949 µM
  viability, T/C: 25.7%
Second compound 3.16 µM, first compound 0.003 µM
  viability, T/C: 41.2%
Second compound 3.16 µM, first compound 0.00949 µM
  viability, T/C: 5.46%
Second compound 3.16 µM, first compound 0.03 µM
  viability, T/C: 2.33%
Second compound 3.16 µM, first compound 0.0949 µM
  viability, T/C: 1.76%
Second compound 3.16 µM, first compound 0.3 µM
  viability, T/C: 1.27%
Second compound 10 µM, first compound 0.000949 µM
  viability, T/C: 24.6%
Second compound 10 µM, first compound 0.003 µM
  viability, T/C: 34.8%
Second compound 10 µM, first compound 0.00949 µM
  viability, T/C: 6.06%
Second compound 10 µM, first compound 0.03 µM
  viability, T/C: 2.66%
Second compound 10 µM, first compound 0.0949 µM
  viability, T/C: 1.59%
Second compound 10 µM, first compound 0.3 µM
  viability, T/C: 0.75%

## Cn1ncnc1[C@H]1c2n[nH]c(=O)c3cc(F)cc(c23)N[C@@H]1c1ccc(F)cc1 + CNC(=O)c1ccc(Nc2nc(OC3CCCC3)c3c(-c4ccc5nc(C)oc5c4)c[nH]c3n2)c(OC)c1
Second compound 0.0316 µM
  IC50: > 100 nM
Second compound 0.1 µM
  IC50: < 0.316 nM
Second compound 0.316 µM
  IC50: < 0.316 nM
Second compound 1 µM
  IC50: < 0.316 nM
Second compound 3.16 µM
  IC50: < 0.316 nM
Second compound 10 µM
  IC50: < 0.316 nM
Second compound 0.0316 µM, first compound 0.000316 µM
  viability, T/C: 101%
Second compound 0.0316 µM, first compound 0.001 µM
  viability, T/C: 68.8%
Second compound 0.0316 µM, first compound 0.00316 µM
  viability, T/C: 86.1%
Second compound 0.0316 µM, first compound 0.01 µM
  viability, T/C: 85%
[1]
  viability, T/C: 83.4%
[2]
  viability, T/C: 75.5%
Second compound 0.1 µM, first compound 0.000316 µM
  viability, T/C: 43.6%
Second compound 0.1 µM, first compound 0.001 µM
  viability, T/C: 44.8%
Second compound 0.1 µM, first compound 0.00316 µM
  viability, T/C: 41.6%
Second compound 0.1 µM, first compound 0.01 µM
  viability, T/C: 37.5%
[3]
  viability, T/C: 38.6%
[4]
  viability, T/C: 31.4%
Second compound 0.316 µM, first compound 0.000316 µM
  viability, T/C: 34.5%
Second compound 0.316 µM, first compound 0.001 µM
  viability, T/C: 42.8%
Second compound 0.316 µM, first compound 0.00316 µM
  viability, T/C: 34.1%
Second compound 0.316 µM, first compound 0.01 µM
  viability, T/C: 39%
[5]
  viability, T/C: 39.9%
[6]
  viability, T/C: 37.3%
Second compound 1 µM, first compound 0.000316 µM
  viability, T/C: 23.3%
Second compound 1 µM, first compound 0.001 µM
  viability, T/C: 32.8%
Second compound 1 µM, first compound 0.00316 µM
  viability, T/C: 30.6%
Second compound 1 µM, first compound 0.01 µM
  viability, T/C: 23.3%
[7]
  viability, T/C: 21.3%
[8]
  viability, T/C: 25.8%
Second compound 3.16 µM, first compound 0.000316 µM
  viability, T/C: 28.6%
Second compound 3.16 µM, first compound 0.001 µM
  viability, T/C: 23.7%
Second compound 3.16 µM, first compound 0.00316 µM
  viability, T/C: 27.2%
Second compound 3.16 µM, first compound 0.01 µM
  viability, T/C: 23.2%
[9]
  viability, T/C: 24.4%
[10]
  viability, T/C: 23.6%
Second compound 10 µM, first compound 0.000316 µM
  viability, T/C: 29%
Second compound 10 µM, first compound 0.001 µM
  viability, T/C: 25.5%
Second compound 10 µM, first compound 0.00316 µM
  viability, T/C: 24.7%
Second compound 10 µM, first compound 0.01 µM
  viability, T/C: 24.6%
[11]
  viability, T/C: 24.3%
[12]
  viability, T/C: 21.2%

## O=C(c1cc(Cc2n[nH]c(=O)c3ccccc23)ccc1F)N1CCN(C(=O)C2CC2)CC1 + CNC(=O)c1ccc(Nc2nc(OC3CCCC3)c3c(-c4ccc5nc(C)oc5c4)c[nH]c3n2)c(OC)c1
Second compound 0.0316 µM
  IC50: > 10000 nM
Second compound 0.1 µM
  IC50: < 31.6 nM
Second compound 0.316 µM
  IC50: < 31.6 nM
Second compound 1 µM
  IC50: < 31.6 nM
Second compound 3.16 µM
  IC50: < 31.6 nM
Second compound 10 µM
  IC50: < 31.6 nM
[1]
  viability, T/C: 83.2%
[2]
  viability, T/C: 82.8%
Second compound 0.0316 µM, first compound 0.316 µM
  viability, T/C: 95.6%
Second compound 0.0316 µM, first compound 1 µM
  viability, T/C: 115%
Second compound 0.0316 µM, first compound 3.16 µM
  viability, T/C: 109%
Second compound 0.0316 µM, first compound 10 µM
  viability, T/C: 78.5%
[3]
  viability, T/C: 44.3%
[4]
  viability, T/C: 40.1%
Second compound 0.1 µM, first compound 0.316 µM
  viability, T/C: 45.6%
Second compound 0.1 µM, first compound 1 µM
  viability, T/C: 44.1%
Second compound 0.1 µM, first compound 3.16 µM
  viability, T/C: 46.2%
Second compound 0.1 µM, first compound 10 µM
  viability, T/C: 46.3%
[5]
  viability, T/C: 37.4%
[6]
  viability, T/C: 42.7%
Second compound 0.316 µM, first compound 0.316 µM
  viability, T/C: 35.4%
Second compound 0.316 µM, first compound 1 µM
  viability, T/C: 36.1%
Second compound 0.316 µM, first compound 3.16 µM
  viability, T/C: 38.7%
Second compound 0.316 µM, first compound 10 µM
  viability, T/C: 51.8%
[7]
  viability, T/C: 29.4%
[8]
  viability, T/C: 30.1%
Second compound 1 µM, first compound 0.316 µM
  viability, T/C: 28%
Second compound 1 µM, first compound 1 µM
  viability, T/C: 32.3%
Second compound 1 µM, first compound 3.16 µM
  viability, T/C: 24.2%
Second compound 1 µM, first compound 10 µM
  viability, T/C: 25.6%
[9]
  viability, T/C: 27%
[10]
  viability, T/C: 23.7%
Second compound 3.16 µM, first compound 0.316 µM
  viability, T/C: 27.8%
Second compound 3.16 µM, first compound 1 µM
  viability, T/C: 26.5%
Second compound 3.16 µM, first compound 3.16 µM
  viability, T/C: 28.4%
Second compound 3.16 µM, first compound 10 µM
  viability, T/C: 29.4%
[11]
  viability, T/C: 24.7%
[12]
  viability, T/C: 29.3%
Second compound 10 µM, first compound 0.316 µM
  viability, T/C: 23.4%
Second compound 10 µM, first compound 1 µM
  viability, T/C: 24.6%
Second compound 10 µM, first compound 3.16 µM
  viability, T/C: 30.7%
Second compound 10 µM, first compound 10 µM
  viability, T/C: 24.7%
